“And” between values parts separate entries of the source, which are not always exact repeats. Identical values can stand only once.
Tests used:
Type in all cases: cell-based
Bsep (Abcb11) = test: qRT-PCR gene expression in mouse PCLS: Bsep; conditions: 48 h, when BAs are present
Experimental: In short, freshly prepared PCLS were transferred to 12-well plates (Greiner bio-one GmbH, Austria), one slice per well.
(§1) Three PCLS incubated under a given condition were pooled in a 1.5-mL Rnase-free test tube, snap-frozen in liquid nitrogen, and stored at – 80 °C until analysis. RNA was isolated using a FavorPrep Tissue Total RNA Mini Kit (Favorgen, Vienna, Austria). Subsequently, the RNA yield was quantified using a NanoDrop One instrument (Thermo Fisher Scientific, Massachusetts, USA). Isolated RNA was reverse-transcribed to cDNA using a cDNA synthesis kit (Reverse Transcription System, Promega, Benelux B.V.). The cDNA samples were subsequently loaded in the thermal cycler with a program set to 22 °C for 10 min, 42 °C for 15 min, and 95 °C for 5 min.
(§2) qRT-PCR was used to determine the relative mRNA expression levels for the mouse target genes: Bsep (Abcb11), Mrp2 (Abcc2), Mrp3 (Abcc3), Mrp4 (Abcc4), Ntcp (Slc10a1), Fxr (Nr1h4), Cyp7a1 (Cyp7a1), Collagen type 1a1 (Col1a1), Hsp47 (Serpinh1). Primer sequences of the genes tested are given in Supplementary Table S1. QRT-PCR was performed using, the dye, FastStart Universal SYBR Green Master Mix (Roche Diagnostics Netherlands B.V., Almere, the Netherlands) with the ViiA™ 7 Real-Time PCR System (Applied Biosystems, Bleiswijk, the Netherlands). The first cycle constituted 10 min at 95 °C, followed by 40 cycles of 15 s at 95 °C, 30 s at 60 °C and 30 s at 72 °C, followed by 1 cycle dissociation stage (15 s: 95 °C, 60 °C and 95 °C). A minimum of four mouse livers was used for each experiment, using three PCLS per condition. Samples were measured in duplicates. […] Results are expressed as log2(fold change).

Ntcp (Slc10a1) = test: qRT-PCR gene expression in mouse PCLS: Ntcp; conditions: 48 h
Experimental: In short, freshly prepared PCLS were transferred to 12-well plates (Greiner bio-one GmbH, Austria), one slice per well. Each well was filled with 1.3 mL pre-heated (37 ℃) and oxygenated (80%) Williams Medium E (1X, glutaMAX-1), which had been supplemented with 25 mM D-glucose monohydrate and 50 μg/ml Gentamicin (denoted as WME GG). […] The DMSO concentration used was below 0.5% in the incubation medium, equivalent to DMSO concentrations in solutions prepared by dilution of BA stock solutions with WME GG.
as §1, §2

mouse PCLS = test: LC–MS/MS quantification of intracellular BAs in mouse PCLS; conditions: 48 h
Experimental: In short, freshly prepared PCLS were transferred to 12-well plates (Greiner bio-one GmbH, Austria), one slice per well. […] The composition of the human-like BA mixture was based on serum concentrations in mice and humans, measured by […]. […] A Shimadzu Nexera X2 HPLC system with binary pumps was interfaced to a Thermo Scientific TSQ Quantum ultra-triple quadrupole mass spectrometer. The BA analysis was performed by liquid chromatography-tandem mass spectrometry (LC-MS/MS). Xcalibur software version 2.0.7 by Thermo Scientific was applied in the data processing. […] Phenomenex, Utrecht, the Netherlands) reversed-phase column was used to separate the BAs. The column and autosampler temperatures were set at 55 °C and 4 °C, respectively. The injection volume was 15 μL, and the flow was set at 0.3 mL/min. […] Intracellular BA concentrations in PCLS were measured by LC-MS/MS. Sample preparation for these measurements of intracellular BAs was performed as follows. […] Hereafter, three slices for each condition were pooled in a 1.5-mL test tube, snap-frozen in liquid nitrogen and stored at -80 °C until analysis. […] Samples were subsequently centrifuged for 15 min at 15 °C and 13,000 rpm. The supernatant was collected in a new tube, and the samples were concentrated using a Concentrator plus centrifuge (Eppendorf, Germany). […] The concentrations of CA, CDCA, DCA, LCA, UDCA, HDCA, […] and GCA were determined with MRM-based LC-MS as described above.

[1] = with humanized BA mixture, CPZ 15 µM, CSA 1 µM, GB 25 µM
[2] = with humanized BA mixture, CPZ 30 µM, CSA 6 µM, GB 65 µM
[3] = without BA mixture, CPZ 15 µM, CSA 1 µM, GB 25 µM
[4] = without BA mixture, CPZ 30 µM, CSA 6 µM, GB 65 µM

COc1ccc(Cl)cc1C(=O)NCCc1ccc(S(=O)(=O)NC(=O)NC2CCCCC2)cc1 [GB, Glibenclamide]
Bsep gene expression (Bsep (Abcb11); 25 µM GB): increases | Bsep gene expression (Bsep (Abcb11); 65 μM GB): decreases Bsep expression significantly | Ntcp gene expression (Ntcp (Slc10a1); BAs present, highest concentration of CPZ, lowest concentration of GB): increase the expression of Ntcp significantly | Ntcp gene expression (Ntcp (Slc10a1); in the absence of BAs): decrease the Ntcp expression | Effect on total intracellular BA concentration (mouse PCLS; in the absence of the BA mixture): decrease in intracellular concentrations of BAs | Intracellular CA concentration (mouse PCLS; [1]): 103.6±10.3 pmol/mg protein | Intracellular CDCA concentration (mouse PCLS; [1]): 14.7±1.6 pmol/mg protein | Intracellular DCA concentration (mouse PCLS; [1]): 50.7±7.4 pmol/mg protein | Intracellular GCA concentration (mouse PCLS; [1]): 13.4±2.4 pmol/mg protein | Intracellular HDCA concentration (mouse PCLS; [1]): 9.4±2.7 pmol/mg protein | Intracellular LCA concentration (mouse PCLS; [1]): 0.8±0.5 pmol/mg protein | Intracellular TCA concentration (mouse PCLS; [1]): 103.8±8.6 pmol/mg protein | Intracellular TCDCA concentration (mouse PCLS; [1]): 7.7±0.5 pmol/mg protein | Intracellular TDCA concentration (mouse PCLS; [1]): 7.6±0.8 pmol/mg protein | Intracellular THDCA concentration (mouse PCLS; [1]): 8.3±1.4 pmol/mg protein | Intracellular UDCA concentration (mouse PCLS; [1]): 19.1±1.7 pmol/mg protein | Total intracellular concentration of 11 BAs (mouse PCLS; [1]): 339.2±20.7 pmol/mg protein | Intracellular CA concentration (mouse PCLS; [2]): 132.3±11.3 pmol/mg protein | Intracellular CDCA concentration (mouse PCLS; [2]): 14.8±1.3 pmol/mg protein | Intracellular DCA concentration (mouse PCLS; [2]): 121.3±8.6 pmol/mg protein | Intracellular GCA concentration (mouse PCLS; [2]): 22.4 pmol/mg protein and 22.4±6.1 pmol/mg protein | Intracellular HDCA concentration (mouse PCLS; [2]): 25.7±1.5 pmol/mg protein | Intracellular LCA concentration (mouse PCLS; [2]): 0.9±0.3 pmol/mg protein | Intracellular TCA concentration (mouse PCLS; [2]): 135.2±19.9 pmol/mg protein | Intracellular TCDCA concentration (mouse PCLS; [2]): 8.6±1.2 pmol/mg protein | Intracellular TDCA concentration (mouse PCLS; [2]): 14.6±0.9 pmol/mg protein | Intracellular THDCA concentration (mouse PCLS; [2]): 11.4±2.6 pmol/mg protein | Intracellular UDCA concentration (mouse PCLS; [2]): 24.5±3.9 pmol/mg protein | Effect on total intracellular BA concentration (mouse PCLS; with humanized BA mixture, vs control): reduced or did not affect | Intracellular CA concentration (mouse PCLS; [3]): 0.5±0.0 pmol/mg protein | Intracellular CDCA concentration (mouse PCLS; [3]): 0.2±0.1 pmol/mg protein | Intracellular DCA concentration (mouse PCLS; [3]): 0.6±0.5 pmol/mg protein | Intracellular GCA concentration (mouse PCLS; [3]): 0.0±0.0 pmol/mg protein | Intracellular HDCA concentration (mouse PCLS; [3]): 0.0±0.0 pmol/mg protein | Intracellular LCA concentration (mouse PCLS; [3]): 0.1±0.1 pmol/mg protein | Intracellular TCA concentration (mouse PCLS; [3]): 0.7±0.2 pmol/mg protein | Intracellular TCDCA concentration (mouse PCLS; [3]): 2.3±0.5 pmol/mg protein | Intracellular TDCA concentration (mouse PCLS; [3]): 0.0±0.0 pmol/mg protein | Intracellular THDCA concentration (mouse PCLS; [3]): 1.8±0.3 pmol/mg protein | Intracellular UDCA concentration (mouse PCLS; [3]): 0.0±0.0 pmol/mg protein | Total intracellular concentration of 11 BAs (mouse PCLS; [3]): 6.3±0.0 pmol/mg protein | Intracellular CA concentration (mouse PCLS; [4]): 0.5±0.2 pmol/mg protein | Intracellular CDCA concentration (mouse PCLS; [4]): 0.4±0.3 pmol/mg protein | Intracellular DCA concentration (mouse PCLS; [4]): 0.1±0.1 pmol/mg protein | Intracellular GCA concentration (mouse PCLS; [4]): 0.0±0.0 pmol/mg protein | Intracellular HDCA concentration (mouse PCLS; [4]): 0.0±0.0 pmol/mg protein | Intracellular LCA concentration (mouse PCLS; [4]): 0.2±0.1 pmol/mg protein | Intracellular TCA concentration (mouse PCLS; [4]): 0.3±0.1 pmol/mg protein | Intracellular TCDCA concentration (mouse PCLS; [4]): 2.0±0.4 pmol/mg protein | Intracellular TDCA concentration (mouse PCLS; [4]): 0.0±0.0 pmol/mg protein | Intracellular THDCA concentration (mouse PCLS; [4]): 0.5±0.1 pmol/mg protein | Intracellular UDCA concentration (mouse PCLS; [4]): 0.0±0.0 pmol/mg protein | Total intracellular concentration of 11 BAs (mouse PCLS; [4]): 4.2±0.0 pmol/mg protein

From paper PMC9325861, “Mouse precision-cut liver slices as an ex vivo model to study drug-induced cholestasis” (Archives of Toxicology, 2022)
